Results: patent US20240247224A1, “SYSTEM AND METHOD FOR RAPID SUSCEPTIBILITY TESTING” (priority 2023, published 2024)
In brackets after ≈: the same amount, converted by molar mass. Read-outs that look alike come from different tables or passages of the source.

Legend:
[1] = system: NG 49226 (QC strain); assay: Optical scatter phenotypic AST on the instrument, NG 49226; format: cell-based, Neisseria gonorrhoeae; conditions: read-out: Our MIC based on the curves
Description: (§1) In one embodiment, the application of the system disclosed herein is to conduct phenotypic antimicrobial susceptibility testing on Neisseria gonorrhoeae (NG). NG is a fastidious organism and a difficult organism to culture in liquid nutrient broth. The instant invention uses a proprietary media designed for the broth culture of NG. Using specific antibiotics, each at multiple concentrations in each well within the cassette and allowing bacteria to culture in the presence of antibiotic, one can determine the phenotypic AST results. Data generated and illustrated in the figures was generated from samples ranging from single wells or a plurality of wells within one or more cassettes.
(§2) In one embodiment, the application of the system is to conduct phenotypic antimicrobial susceptibility testing on NG. […]
(§3) The workflow involves use of a sample preparation kit (if and as needed) to process the sample to be tested (based on the sample type). […] The cassette is then loaded into one of the open bays/readers within the instrument. The reader also has an RFID scanner to record the cassette location i.e., the bay/reader it is inserted into within the instrument. The cassette is then autonomously incubated within the instrument, during which all wells within the cassette are read independently by the reader at regular specified time intervals, until the test is complete. […]

[2] = system: AR Isolate AR 0817; assay: Optical scatter phenotypic AST on the instrument, AR Isolate AR 0817; format: cell-based; conditions: Neisseria gonorrhoeae, FIG. 27, read-out: Our MIC from the instrument
Description: as §1, §2, §3

[3] = system: NG 49226 (QC strain); conditions: FIG. 24; cited from earlier work
[4] = system: E coli 25922 (QC strain); assay: Optical scatter phenotypic AST on the instrument, E coli 25922; format: cell-based; conditions: normalized reading, 650 nm, FIG. 25, read-out: Our MIC based on the curves
Description: (§4) In one embodiment, the application of the system is to conduct phenotypic antimicrobial susceptibility testing on gram positive and gram negative organisms from isolates or directly from a positive blood sample. In this embodiment, our method deploys a series of tightly controlled environmental factors, such as temperature, humidity, CO2, along with the use of Mueller-Hinton-II defined media allowing for the testing of these organisms as specified by CLSI. Using specific antibiotics, at various ranges, antibiotic classes, concentrations across the wells of the cassette and allowing bacteria to culture in the presence of antibiotic, one can determine the phenotypic AST results.
(§5) The workflow involves use of a sample preparation kit (if and as needed) to process the sample to be tested (based on the sample type). […] The cassette is then loaded into one of the open bays/readers within the instrument. The reader also has an RFID scanner to record the cassette location i.e., the bay/reader it is inserted into within the instrument. The cassette is then autonomously incubated within the instrument, during which all wells within the cassette are read independently by the reader at regular specified time intervals, until the test is complete. […] Based on the statistical analysis, if the signal change was determined as significant for a given well that well is considered to have detected the analyte. […]

[5] = system: E coli 25922 (QC strain); conditions: FIG. 25; cited from earlier work
[6] = system: NG AR 0165 (Neisseria gonorrhoeae antibiotic resistant isolate 0165); conditions: FIG. 22; cited from earlier work
[7] = system: NG AR 0165 (Neisseria gonorrhoeae antibiotic resistant isolate 0165); assay: Optical scatter phenotypic AST on the instrument, NG AR 0165; format: cell-based; conditions: normalized reading, 650 nm, FIG. 22, read-out: Our MIC based on the curves
Description: as §1, §2, §3

[8] = system: K pneumoniae 700603; assay: Optical scatter phenotypic AST on the instrument, K pneumoniae 700603; format: cell-based; conditions: K pneumoniae 700603 in CAMHB with blood (to mimic a positive blood culture vial); FIG. 30; read-out: Our MIC based on the curves
Description: as §4, §5

[9] = system: Staphylococcus aureus in diluted positive blood culture sample; assay: In-house broth microdilution test (expected MIC), Staphylococcus aureus; format: cell-based; conditions: clinical positive blood culture sample, FIG. 34, read-out: expected MIC value (based on in-house broth microdilution test)
Protocol: (§6) BMD refers to liquid suspension of an isolated culture in the presence of varying types and concentrations of antibiotics. The liquid cultures are incubated for a period of time at which the turbidity or cloudiness of the suspension is measured either visually, optically or using other detection means. The turbidity is caused by bacteria multiplying and/or a “growing” culture (resistant), whereas a susceptible culture or isolate would appear as clear or lacking turbidity. Use of a reading device permits this process to be semi-automated.

[10] = system: Staphylococcus aureus in diluted positive blood culture sample; assay: Direct-from-positive blood culture AST on the instrument, Staphylococcus aureus; format: cell-based; conditions: diluted positive blood culture sample from the clinical lab, FIG. 34, read-out: Our MIC based on the curves
Description: (§7) In one embodiment, the application of the system is to conduct phenotypic antimicrobial susceptibility testing on gram positive and gram-negative organisms from a positive blood sample without plating for an isolate. In this embodiment, the positive blood sample is adjusted to the desired microbial concentration. In this embodiment our method deploys a series of tightly controlled environmental factors, such as temperature, humidity, CO2, along with the use of Mueller-Hinton-II defined media allowing for the testing of these organisms as specified by CLSI. […]
as §3, with “complete. The test completion is determined either by the prespecified time period for the cassette to be run, or until the software algorithm running the data analysis in real-time determines the necessary change to the call to complete the test.” for “complete.”

[11] = system: NG AR 0179 (Neisseria gonorrhoeae antibiotic resistant isolate 0179); assay: Optical scatter phenotypic AST on the instrument, NG AR 0179; format: cell-based; conditions: normalized reading, 650 nm, FIG. 23, read-out: Our MIC based on the curves
Description: as §1, §2, §3

[12] = system: S aureus 29213 (QC strain); assay: Optical scatter phenotypic AST on the instrument, S aureus 29213; format: cell-based; conditions: S aureus 29213 (QC strain) in cation adjusted Mueller Hinton Broth (CAMHB); FIG. 28; read-out: Our MIC based on the curves
Description: as §4, §5

[13] = system: E faecalis 29212 (QC strain); assay: Optical scatter phenotypic AST on the instrument, E faecalis 29212; format: cell-based; conditions: E faecalis 29212 (QC strain) in CAMHB with blood (to mimic a positive blood culture vial); FIG. 29; read-out: Our MIC based on the curves
Description: as §4, §5

[14] = system: E faecalis 29212 (QC strain); conditions: FIG. 29; cited from earlier work
[15] = system: Serratia marcescens in diluted positive blood culture sample; assay: Direct-from-positive blood culture AST on the instrument, Serratia marcescens; format: cell-based; conditions: diluted positive blood culture sample from the clinical lab, FIG. 33, read-out: Our MIC based on the curves
Description: as §7
as §3, with “complete. The test completion is determined either by the prespecified time period for the cassette to be run, or until the software algorithm running the data analysis in real-time determines the necessary change to the call to complete the test.” for “complete.”

[16] = system: Serratia marcescens in diluted positive blood culture sample; assay: In-house broth microdilution test (expected MIC), Serratia marcescens; format: cell-based; conditions: clinical positive blood culture sample, FIG. 33, read-out: expected MIC value (based on in-house broth microdilution test)
Protocol: as §6

## C=CC1=C(C(=O)O)N2C(=O)[C@@H](NC(=O)/C(=N\OCC(=O)O)c3csc(N)n3)[C@H]2SC1 [Cefixime]
[1]; Neisseria gonorrhoeae 49226 (QC strain), 5-well cassette system, FIG. 26
  MIC: 8 ng/mL (≈ 0.0176 µM)
[2]
  MIC: 0.125 µg/mL (≈ 0.276 µM)

## O=C(O)c1cn(C2CC2)c2cc(N3CCNCC3)c(F)cc2c1=O [Ciprofloxacin]
[3]
  expected MIC value range (per CDC agar dilution testing): 1 to 8 ng/mL
[4]
  MIC: 8 ng/mL (≈ 0.0241 µM)
[5]
  expected MIC value range (BMD method): 4 to 16 ng/mL
[1]; Neisseria gonorrhoeae, NG 49226 (QC strain), normalized reading, 650 nm, FIG. 24
  MIC: 2 ng/mL (≈ 0.00604 µM)
[6]
  expected MIC value (per CDC agar dilution testing): 8 µg/mL
[7]
  MIC: 4 µg/mL (≈ 12.1 µM)

## C[C@@H](O)[C@H]1C(=O)N2C(C(=O)O)=C(SCCN=CN)C[C@H]12 [Imipenem]
[8]
  MIC: 0.5 µg/mL (≈ 1.67 µM)

## Cc1onc(-c2ccccc2)c1C(=O)N[C@@H]1C(=O)N2[C@@H]1SC(C)(C)[C@@H]2C(=O)O [Oxacillin]
[9]
  MIC: > 2 µg/mL
[10]
  MIC: > 2 µg/mL

## CN(C)[C@@H]1C(O)=C(C(N)=O)C(=O)[C@@]2(O)C(O)=C3C(=O)c4c(O)cccc4[C@@](C)(O)[C@H]3C[C@@H]12 [Tetracycline]
[11]
  MIC: 2 µg/mL (≈ 4.5 µM)
[12]
  MIC: 8 ng/mL (≈ 0.018 µM)

## CN[C@H](CC(C)C)C(=O)N[C@H]1C(=O)N[C@@H](CC(N)=O)C(=O)N[C@H]2C(=O)N[C@H]3C(=O)N[C@H](C(=O)N[C@H](C(=O)O)c4cc(O)cc(O)c4-c4cc3ccc4O)[C@H](O)c3ccc(c(Cl)c3)Oc3cc2cc(c3O[C@@H]2O[C@H](CO)[C@@H](O)[C@H](O)[C@H]2O[C@H]2C[C@](C)(N)[C@H](O)[C@H](C)O2)Oc2ccc(cc2Cl)[C@H]1O [Vancomycin]
[13]
  MIC: 4 µg/mL (≈ 2.76 µM)
[14]
  expected MIC value: 1 to 4 µg/mL

## CC1(C)S[C@@H]2[C@H](NC(=O)[C@H](N)c3ccccc3)C(=O)N2[C@H]1C(=O)O [ampicillin]
[15]
  MIC: 16 µg/mL (≈ 45.8 µM)
[16]
  MIC: > 16 µg/mL
